Results reported in a melting point compilation (Tetko et al.; mined from patent text by program, amines drawn as free bases though some values may be those of a salt).

melting point	Compound
85 to 86 °C	COc1ccc(CSc2cccc(N)c2)cc1
54 to 56 °C	CC(=Cc1ccc(C)cc1C)c1ccc2c(c1)C(C)(C)CCC2(C)C
127 to 128 °C	CCOC(=O)/C=C/c1cc(OCc2ccc(OCc3nc(-c4ccco4)oc3C)c(OC)c2)nn1-c1ccccc1
154 to 156 °C	CCCCCCOc1cc(N(CC)CC)ccc1C1(c2c(C)n(CC)c3ccccc23)OC(=O)c2cccnc21 (stereo not given)
133 to 135 °C	CCCc1c(OCC(O)CSc2nc3ccc(C(=O)O)cc3[nH]2)ccc(C(C)=O)c1O (stereo not given)
165 to 168 °C	CCOC(=O)[C@H](CCc1ccccc1)N[C@@H](C)C(=O)N1N=C(C(C)(C)C)S[C@H]1C(=O)O
139 to 141 °C	CC(C)OC(=O)Nc1c(C(O)(C(F)(F)F)C(F)(F)F)ccc2ccccc12
226 to 228 °C	Cn1cc(C(=O)O)c(=O)c2cc3cc(F)c(N4CCNC(c5ccc(OCCO)cc5)C4)c(F)c3nc21 (racemic)
174 °C	c1cncc(Nc2ncc(-c3ccncn3)c(-c3ccco3)n2)c1
83 to 84 °C	O=C(O)CCCOc1cccc(C2CCCCC2)c1
62 to 63 °C	CN(C)c1cccc(OCC(=O)NCCO[N+](=O)[O-])c1
103 °C	Fc1ccc2c(c1)CC[C@H](CNCCNc1ncccn1)O2
196 to 200 °C	CCCC1=C(C#N)C(c2cccc(N3CCOCC3)c2)c2c[nH]nc2N1 (stereo not given)
118 to 119 °C	O=C(O)CCCCCCOc1ccc(OCc2ccccc2)cc1
158 to 160 °C	CCCCc1nc(Cl)c(CNC(=O)c2cc3c(OCC(O)CN(C(=O)OC(C)(C)C)C(C)C)cccc3[nH]2)n1Cc1ccc(-c2ccccc2C(=O)OC)cc1 (stereo not given)
165 to 168 °C	COc1ccccc1N1CCN(C(=O)[C@H](N)CC2CCCCC2)CC1
> 260 °C	CN(C)CCN1C(=O)c2ccc3[nH]c4ccc(O)cc4c3c2C1=O

melting point	Compound
216 °C	Nc1cc(Cl)c(S(N)(=O)=O)cc1N
114 to 116 °C	c1ccc2c(c1)ncc1ncsc12
66 °C	COc1ccc(/C=C/CCCCO)cc1
86 to 88 °C	Cc1ncc(CCCOc2c(C)cc(-c3nnn(C)n3)cc2C)s1
147 to 150 °C	Nc1cc(=O)n(CC2CCCCC2)c(=S)n1CC1CCCCC1
144 to 145 °C	CCn1c(C)nc2cc(C(F)(F)F)cc(N)c21
153 °C	Cc1nn(C)c(=O)n1-c1ccc([N+](=O)[O-])cc1
152 to 153 °C	Nc1nc2ccc(CCN3CCC(Cc4ccccc4)CC3)cc2s1
234 to 236 °C	O=C(NCc1cccnc1)c1ccc2n1Cc1ccccc1N(C(=O)c1ccc(-c3ncccn3)cc1)C2
100 °C	Nc1ccc(C(=O)OCCOC(=O)C[C@@H](C(=O)O)n2c3ccccc3c3ccccc32)cc1
239 °C	CCOC(=O)c1c(N2CCN(C(=O)c3cccs3)CC2)c2cccnc2[nH]c1=O
203 to 204 °C	CCCCN(Cc1ccc(-c2ccccc2-c2nnn[nH]2)cc1)c1ncn(C)c1C(=O)OCC
204 to 207 °C	Cc1ncccc1-c1cncc(OC2SCC(O)C(O)C2O)c1 (stereo not given)
242 to 246 °C	O=C(C(c1ccccc1)n1cnc2[nH]ncc2c1=S)N1CCN(c2ccccn2)CC1 (stereo not given)
128 to 129 °C	Nc1cc(NS(=O)(=O)CCl)ccc1F
126 to 128 °C	CSc1ccc2cc(Cc3ccccc3)cc(CCNC(C)=O)c2c1

Continued, compound first:

Compound	melting point
CC(=O)c1cc(S(=O)(=O)N(C)C)c(Cl)cc1Cl	98 to 100 °C
COc1cc2c(cc1OC)-c1n[nH]c(Nc3cc(Cl)cc(Cl)c3)c1C2	> 270 °C
CC(C)c1nc(C(C)C)c(CN2CCOCC2)c(-c2ccc(F)cc2)c1CO	93.5 to 95.5 °C
Cc1cc(N)nc(CCc2nc3cc(-c4ccc(C#N)cc4)cnc3[nH]2)c1	218 °C
C#Cc1cnc2c(C)cc(OC(SC)C(=O)NC(C)(C#N)CF)cc2c1 (stereo not given)	180 to 182 °C
CCC(OC)c1c(Br)c(Oc2ncnc3[nH]nnc23)c(OC)c(C)c1C(C)C (stereo not given)	149 to 150 °C
CCCCN1C(=O)CC(C2C(=O)N(CCCC)C(=O)C2c2cc(C(C)(C)C)c(O)c(C(C)(C)C)c2)C1=O (stereo not given)	151 to 153 °C
CCCCOC(=O)c1ccc(N2CCN(c3ccc(CC(C)O)cc3)CC2)cc1 (stereo not given)	85 to 86 °C
CC[C@@H](CNc1ccc(C)cc1C)NS(=O)(=O)c1c(N)cc(Cl)cc1Cl	151 °C
CCOc1cc(CO)ccc1OCCBr	51 to 53 °C
O=c1cc(C=Cc2ccccc2)oc2ccc(O)cc12	230 °C
O=c1ccc2ccc(OCCCN3CCCN(c4cccc(Cl)c4Cl)CC3)cc2[nH]1	117 to 118 °C
Cc1ccc(-c2ccc(C(=O)Nc3cc4ncc(CN5CCCC5)cc4cc3C)cc2F)cc1	175 to 178 °C
COC(=O)CC[C@H](NC(=O)c1ccc(NCCCc2c(NC(C)=O)nc(NC(C)=O)[nH]c2=O)cc1)C(=O)OC	135 to 142 °C
Cc1ccc2c(NC(=NC#N)NC(NC(=O)Cc3ccc(Cl)cc3)C(C)(C)C)cccc2n1 (stereo not given)	198 to 199 °C
C=CCOP(=O)(OCC=C)C(N)=O	91 to 94 °C
COc1cc(-c2csc(-n3c(C)ccc3C)n2)c(OC)cc1C	92 to 93 °C
CCOC(=O)CSc1nc(Cl)cc(NN=Cc2ccc(F)cc2)n1	146 to 149 °C
Nc1c(CC(=O)N2CCOCC2)cccc1C(=O)c1ccccc1	156 to 158 °C
O=C(Nc1ccc(F)cc1)c1ccccc1F	102 to 104 °C
OCCNC(=S)NC(Cc1cccc2ccccc12)=Nc1ccccc1	155 to 156 °C
COC(=O)c1cc(CO)ccc1O	66 to 67 °C
COc1ccc(S(=O)(=O)N2C(=O)C(c3ccccc3O)(N3CCC[C@H]3C(=O)N(C)C)c3cc(Cl)ccc32)c(OC)c1 (stereo not given in full)	143 °C

Compound	melting point
CCOc1nc(NC(CC)CC)c([N+](=O)[O-])c(OCC)n1	38 to 40 °C
O=C(Nc1ccccc1N1CCc2ccccc21)c1ccco1	99 to 102 °C
Cc1ccc(C(=S)c2ccc(F)cc2)cc1	88 °C
O=C(O)Cc1c(Cl)nc(-c2ccccc2)n1Cc1ccccc1F	144 to 146 °C
CC(C)(C)OC(=O)Nc1scc(C2CC2)c1C(=O)O	175 to 176 °C
CCc1c(C)c2c(c(O)c1C/C=C(\C)CCC(=O)OC)C(=O)OC2	116 °C
CC1(C)COC(=O)N1c1nc(-c2ccc(Br)cc2)cs1	165 to 167 °C
O=c1[nH]c(=O)n(CCCCBr)c2nccnc12	154 to 155 °C
C#Cc1ccc(-c2nc(-c3ccccc3)nc(-c3ccc(C#C)cc3)n2)cc1	215 °C
CC1=C(/C=C/C(C)=C/C=C/C(C)=C/C(=O)O)C(C)(C)CCC1=O	184 to 187 °C
CCn1cc(C(=O)O)c(=O)c2cc3cc(F)c(N4CCNC(c5cccc(F)c5)C4)cc3nc21 (racemic)	284 °C
CCCCc1nc2sc3c(NCc4ccco4)ncnc3c2c2c1COC(C)(C)C2	66.1 to 68.5 °C
CCCCc1nc2c(N)nc3ccc(OCc4ccccc4)cc3c2n1CCCCNS(=O)(=O)c1ccccc1	204 to 205 °C
CCOC(=O)C=Cc1c(N)nc(C)c(NC(C)=O)c1C	204 to 205 °C
NS(=O)(=O)c1cc(C(=O)O)cc(NC/C=C/CBr)c1Oc1ccccc1	191 to 194 °C
CCc1cc(-c2ccc(C(C)=O)cc2)ccc1OC	69 to 72 °C
CCOC(=O)CC(NC(=O)C=CS(=O)c1ccccc1)C(=O)OCC (stereo not given)	121 to 123 °C
c1ccc(-c2nnc3c4ccccc4c(N4CCCC4)nn23)cc1	208 °C
COc1cc(O)c(N2CCN(CCN3CC(C)(C)C3)C2=O)cc1Cl	138 °C
CCOC(=O)C1=C(C=NOc2ccc([N+](=O)[O-])cc2[N+](=O)[O-])NC(CF)=C(C(=O)OCC)C1c1cccc([N+](=O)[O-])c1 (stereo not given)	150 to 152 °C
O=C(O)CP(=O)(O)CCc1ccccc1	120 to 121 °C
BrC12CC3CC(CC(C3)C1=C1C3CC4CC(C3)CC1C4)C2	130 to 132 °C
CN(C)c1cccc(OC(=O)NC2C(=O)N(CCC(C)(C)C)c3ccccc3N(c3ccccc3F)C2=O)c1 (stereo not given)	160 to 161 °C

Compound	melting point
CN(O)CC1=C(n2ccccc2=O)c2cc([N+](=O)[O-])ccc2OC1(C)C	159 °C
COc1cccc2c1C13CCN(C(=O)OCC(Cl)(Cl)Cl)C(C2)C1(C(=O)OCC(Cl)(Cl)Cl)CCC(=O)C3 (stereo not given)	115 to 116 °C
CC(=O)NC1CCN(Cc2ccccc2)C1C (stereo not given)	51 to 54 °C
Cc1oc(-c2ccc(-c3ccc(-c4nc(CC(=O)OCc5ccccc5)c(C)o4)cc3)cc2)nc1CC(=O)OCc1ccccc1	162 to 168 °C
Nc1ccc(C(=O)O)c2c1OCCO2	186 °C
CC(C)(C)[Si](OCC1CSC2=C(O1)c1ccccc1C(=O)C2=O)(c1ccccc1)c1ccccc1 (stereo not given)	205 to 210 °C
Nc1cccc2c(=O)[nH]ncc12	289 to 291 °C
O=C(O)c1cn(-c2ccnc3ccccc23)cc1C1CC1	195 °C
N#Cc1ccc(N2C(=O)NC3(CCCC3)C2=O)cc1C(F)(F)F	184 to 185 °C
O=C1OC2CC3CC(C2)OC1O3	140 to 143 °C
O=C(/C=C/C=C(c1cccc(C(F)(F)F)c1)c1cccc(C(F)(F)F)c1)NCCCCc1cccnc1	89 to 90 °C
CC(C)(C)c1nc(C=C2CCOC2=O)nc(C(C)(C)C)c1O	158 to 160 °C
COc1cc(NC(=O)OC(C)(C)C)c(NC(=O)CC(=O)c2cccc(C#N)c2)cc1C#Cc1ccccc1	169 °C
CC(=O)SCC(CC(C)C)C(=O)NC(C)C(=O)O (stereo not given)	157 to 167 °C
CC(C)(C)OC(=O)n1[nH]c2c(cnc3c([N+](=O)[O-])cccc32)c1=O	> 250 °C
CC(=O)SCC(Cc1ccccc1)C(=O)NC1(C(=O)O)CC1 (stereo not given)	169 to 171 °C
NC1(C(=O)c2ccccc2)CCSC1 (stereo not given)	147 to 149 °C
CC1=NN(c2ccc3c(=O)n(CC(C)C)c(CN)c(-c4ccccc4)c3c2)CO1	179 to 181 °C
O=c1oc(-c2ccccc2)cc(O)c1Sc1ccccc1Cl	275 to 280 °C
Fc1ccc(-c2nnc(Cl)cc2Cl)cc1	124 to 127 °C
O=C1NCC=NN1c1cc(C(F)(F)F)cc(Cl)n1	197 to 198 °C
